Experiment [1] has as its system Non-Small Cell Lung Cancer. Nature of the experiment: Cellular location of MGS, carcinomas and solid tumors. It counts as cell-based. Conditions: for MSG Code and Cellular Location: Table 2, Intracellular = uptake confirmed, exact compartment not determined; for Cellular Location: Table 3, Carcinomas and Solid Tumors. The source says: (§1) The FOX-Three platform is based on established phage display libraries containing 10^9-10^12 candidate peptide-based MGS members that can be rapidly screened against target cells and subcellular systems to identify specifically targeted MGSs (FIG. 2). Peptides are a well-understood class of biomolecule that are readily synthesized by biological processes and through man-made chemical processes. […] It can be applied to any cell type, regardless of knowledge about the molecular features of that cell, producing a lead MGS in 2-4 weeks. Selected peptide-based MGSs are then readily engineered for optimal performance.
(§2) The FOX-Three Platform has already been validated for targeting of cells and subcellular components. A number of validated MGSs are in various stages of development (Table 1) for a variety of cell targeting systems. Methods of conjugating a variety of payloads to the peptide MGSs have been established without disrupting their targeting ability. […] The FOX-Three screening process was recently refined to include subcellular location targeting as a selection criteria. MGSs have been isolated that accumulate in lysosomes, autophagosomes, and Golgi inside cancer cells, as well as target the plasma membrane.

Experiment [2] has as its system Carcinomas and Solid Tumors. Nature of the experiment: In vivo targeting of MGS. Conditions: Table 3; homing to target cell in an animal model.
Text: as §2

The subject of the next experiment is Dendritic Cells. Nature of the experiment: Cellular location of MGS, dendritic cells. The conditions noted are these: Table 2. It counts as cell-based.
Text: as §1

Another experiment relates to H1299 Cells. Nature of the experiment: SRI_MGS2_V4 uptake profile (effective dose, stoichiometry, rate of uptake). Type of experiment: cell-based. The source says: (§3) 1. Example 1: Effective Dose, Stoichiometry, and Rate of Uptake for MGS 2
The next experiment has as its system H358 Cells. The description is as above. Type of experiment: cell-based.
Text: as §3

Experiment [3] has as its system H1993 Cells. The description is as above. Type of experiment: cell-based.
Text: as §3

The next experiment deals with H2009 Cells. The experiment is described as above. Type of experiment: cell-based.
Text: as §3

The subject of a further experiment is Lymphoma Cells. Nature of the experiment: Cellular location of MGS, lymphoma and leukemia. It counts as cell-based. Conditions: Table 2.
Text: as §1

The test system of a further experiment is Cardiomyocytes. Nature of the experiment: Cellular location of MGS, cardiomyocytes. Type of experiment: cell-based. Conditions: Table 2.
Text: as §1

The subject of experiment [4] is H1993 Cells. Nature of the experiment: siRNA internalization with and without MGS (FIG. 5). It counts as cell-based. The conditions noted are these: SA-647, 5′-Biotinylated siRNA+SA-647, 3′-Biotinylated siRNA+SA-647, alone or conjugated to the MGS. The method, then:
With this objective, novel MGSs were applied to facilitate cell-specific delivery of siRNA. As previously mentioned, these MGSs have the unique ability to bind to specific epithelial-derived cancer cell types, and upon binding, triggers rapid internalization and trafficking to specific subcellular locations. The chemically optimized MGSs have 1-2 nM affinities for their cellular targets, serum stability greater than 48 hours, and approximately 50-1000-fold specificity for targeted cancer cells over normal control cells. […] Internalization experiments were first performed using H1993 cells. For this set of experiments, the group of bars at the far right are 5′-Biotinylated siRNA+SA-647 and 3′-Biotinylated siRNA+SA-647 without MGS. The middle and far left bar groups show SA-647, 5′-Biotinylated siRNA+SA-647, and 3′-Biotinylated siRNA+SA-647 conjugated to a first MGS (SRI_MGS1_V4, right) and a second MGS (SRI_MGS2_V4, middle).

The record followed here is patent US20220380764A1, “MOLECULAR GUIDE SYSTEM PEPTIDES AND USES THEREOF” (SRI International, priority 2019, published 2022).

Square brackets hold non-standard residues; d marks the D form. Primed or numbered codes have the meaning given here. Peptide text beside a SMILES is read from it. PEG12 = NCCOCCOCCOCCOCCOCCOCCOCCOCCOCCOCCOCCOCCC(=O)O; PEG11′ = not defined here

In the case of “SVEYWGERMYYDVMESLGFS (MGS peptide) [MGS_H1993.1]”, the “MSG Code and Cellular Location” value in [1] was “MGS_H1993.1_Lysosome”.
Consider “LQWRRDDNVHNFGVWARYRL (MGS peptide) [MGS_1299.3]”, for which, in experiment [1], the “MSG Code and Cellular Location” value is listed as “MGS_H1299.3_Autophagosomes”; the “Cellular Location” value is “Autophagasome”. Besides, the “In Vivo Targeting” value in experiment [2] was “Yes”.
With “EHPWFNMWSWATQVQE (MGS peptide) [MGS_H2009.2]”, in [1], the “MSG Code and Cellular Location” value was “MGS_H2009.2_Lysosome”; the “Cellular Location” value is “Lysosome”.
In the case of “EAMNSAEQSAAVVQWEKRRI (MGS peptide) [MGS_H460.1]”, the “MSG Code and Cellular Location” value in [1] is reported as “MGS_H460.1_PlasmaMembrane”.
With “MTVCNASQRQAHAQATAVSL (MGS peptide) [MGS_A549.1]”, the “MSG Code and Cellular Location” value in experiment [1] was “MGS_A549.1_Intracellular”.
As to “GPEDTSRAPENQQKTFHRRW (MGS peptide) [MGS_XS52.1]”, the “MSG Code and Cellular Location” value in the experiment with Dendritic Cells is on record as “MGS_XS52.1_Intacellular”.
With `CC(=O)N[C@@H](Cc1ccc(O)cc1)C(=O)N[C@@H](C)C(=O)N[C@@H](C)C(=O)N[C@@H](Cc1c[nH]c2ccccc12)C(=O)N1CCC[C@H]1C(=O)N[C@@H](C)C(=O)N[C@@H](CO)C(=O)NCC(=O)N[C@@H](C)C(=O)N[C@@H](Cc1c[nH]c2ccccc12)C(=O)N[C@H](C(=O)NCCOCCOCCOCCOCCOCCOCCOCCOCCOCCOCCOCCOCCC(=O)N[C@@H](CS)C(N)=O)[C@@H](C)O` [SRI_MGS2_V4, CH3CO-YAAWPASGAWT-PEG11-C-NH2] (Ac-YAAWPASGAWT[PEG12]C-NH2), the “Molecules Internalized, 6 H” value is reported as 125500 ± 5430 molecules in the experiment with H1299 Cells (H1299 cells, 6 H with constant incubation of 20 nM MGS); 97100 ± 4830 molecules with H358 Cells (H358 cells, 6 H with constant incubation of 20 nM MGS); 134300 ± 6300 molecules with H1993 Cells [3] (H1993 cells, 6 H with constant incubation of 20 nM MGS); 49500 ± 2230 molecules in the experiment with H2009 Cells (H2009 cells, 6 H with constant incubation of 20 nM MGS). The “Saturation (molecules)” value in the experiment on H1299 Cells (H1299 cells, average number of MGS molecules internalized per cell at saturation concentration at 1 H) is listed as 112800 ± 15500 molecules; in the experiment on H358 Cells (H358 cells, average number of MGS molecules internalized per cell at saturation concentration at 1 H) it was 99900 ± 9640 molecules; in the experiment on H1993 Cells [3] (H1993 cells, average number of MGS molecules internalized per cell at saturation concentration at 1 H) it was 141600 ± 28200 molecules; in the experiment with H2009 Cells (H2009 cells, average number of MGS molecules internalized per cell at saturation concentration at 1 H), 68300 ± 3030 molecules. For the same compound, the t1/2 with H1299 Cells (H1299 cells, rate of uptake) was 37 min; with H358 Cells (H358 cells, rate of uptake), 11 min; with H1993 Cells [3] (H1993 cells, rate of uptake), 12 min; in the experiment on H2009 Cells (H2009 cells, rate of uptake) it was 13 min. In addition, the Specificity in the experiment with H1299 Cells (ratio of MGS uptake on H1299 vs. normal human bronchial epithelial cell line (HBEC)) is given as 1400; with H358 Cells (ratio of MGS uptake on H358 vs. normal human bronchial epithelial cell line (HBEC)) it was 1100; with H1993 Cells [3] (ratio of MGS uptake on H1993 vs. normal human bronchial epithelial cell line (HBEC)) it was 2300; in the experiment with H2009 Cells (ratio of MGS uptake on H2009 vs. normal human bronchial epithelial cell line (HBEC)), 560.
In the case of “KSREHVNNSACPSKRITAAL (MGS peptide) [MGS_A20.2]”, the “MSG Code and Cellular Location” value in the experiment on Lymphoma Cells is reported as “MGS_A20.2_ Plasma Membrane”.
In the case of “MDGATWWTQLDPLLVWEGET (MGS peptide) [MGS_H1993.5]”, in experiment [1], the “MSG Code and Cellular Location” value was “MGS_H1993.5_Intracellular”.
With “YPGSPTQYPSSMHEYHSSSE (MGS peptide) [MGS_H2009.3]”, in experiment [1], the “MSG Code and Cellular Location” value is “MGS_H2009.3_Lysosome”.
With “WLSEAGPVVTVRALRGTGSW (MGS peptide) [MGS_PCM.1]”, the “MSG Code and Cellular Location” value is “MGS_PCM.1_Intracellular” in the experiment with Cardiomyocytes and “MGS_PCM.1_ Plasma Membrane” in the experiment with Lymphoma Cells.
As for “QEALEEWFWKMMPWSGPSGQ (MGS peptide) [MGS_H1993.3]”, the “MSG Code and Cellular Location” value in experiment [1] is recorded as “MGS_H1993.3_Intracellular”.
Turning to “CH3CO-RGDLATLRQL-PEG11-YC-NH2 (Ac-RGDLATLRQL[PEG11′]YC-NH2) [SRI_MGS1_V4]”, the “molecules internalized per cell” value in the experiment on H1993 Cells [4] is “approximately 25000 molecules internalized per cell”.
As to “FHAVPQSFYTAP (MGS peptide) [MGS_HCC15.2]”, in experiment [1], the “MSG Code and Cellular Location” value is “MGS_HCC15.2_Lysosomal”; the “Cellular Location” value is recorded as “Lysosome”. Moreover, the “In Vivo Targeting” value in [2] was “Yes”.
Regarding “RGDLATLRQLAQEDGVVGVR (MGS peptide) [MGS_H2009.1]”, in experiment [1], the “MSG Code and Cellular Location” value is given as “MGS_H2009.1_Golgi”; the “Cellular Location” value is reported as “Golgi”. The “In Vivo Targeting” value in [2] is given as “Yes”.
With “VSQTMRQTAVPLLWFWTGSL (MGS peptide) [MGS_H1299.1]”, the “MSG Code and Cellular Location” value in experiment [1] was “MGS_H1299.1_Intracellular”.
For “SADWFQGPAEWLLEGWMGPL (MGS peptide) [MGS_H1993.6]”, the “MSG Code and Cellular Location” value in [1] is reported as “MGS_H1993.6_Intracellular”.
In the case of “FEEFYSRQSNTIPYPQQYKG (MGS peptide) [MGS_H2009.5]”, the “MSG Code and Cellular Location” value in [1] is reported as “MGS_H2009.5_ER/Lysosome”.
Regarding “SAKTAVSQRVWLPSHRGGEP (MGS peptide) [MGS_A20.1]”, in the experiment on Lymphoma Cells, the “MSG Code and Cellular Location” value is “MGS_A20.1_PlasmaMembrane”.
As to “AHTIDDEWASYHMQQWNSPP (MGS peptide) [MGS_H2009.4]”, in [1], the “MSG Code and Cellular Location” value was “MGS_H2009.4_Golgi/ER”.
“TWTDFGQWPWPFGAEGTRAF (MGS peptide) [MGS_H1993.4]”: in experiment [1], the “MSG Code and Cellular Location” value is “MGS_H1993.4_Pre-mitotic cells”.
In the case of “YAAWPASGAWTGTAPCSAGT (MGS peptide) [MGS_1299.2]”, in experiment [1], the “MSG Code and Cellular Location” value is listed as “MGS_H1299.2_Intracellular”; the “Cellular Location” value was “Lysosome”. Further, in [2], the “In Vivo Targeting” value was “Yes”.
The like results for “ATEPRKQYATPRVFWTDAPG (MGS peptide) [MGS_HCC15.1]” were, in that order, “MGS_HCC15.1_Intracellular”, “Lysosome” and “Yes”.
Regarding “FAAKRAEWWDPGQLWDAVWN (MGS peptide) [MGS_H1993.2]”, the “MSG Code and Cellular Location” value in [1] is “MGS_H1993.2_Intracellular”.
